Literature values, collected in US8476254B2, “Methods for treating psychosis associated with interferson-α therapy” (Corcept Therapeutics, Inc., priority 2002, dated 2013).

Settings: % of the daily dose; in one study (Kawai)

CC#C[C@]1(O)CC[C@H]2[C@@H]3CCC4=CC(=O)CCC4=C3[C@@H](c3ccc(N(C)C)cc3)C[C@@]21C [Mifepristone, 17-beta-hydroxy-11-beta-(4-dimethyl-aminophenyl)-17-alpha-(1-propynyl)-estra-4,9-dien-3-one]
fraction of the daily dose excreted in the urine: less than 0.5%
